Measurements as given in paper PMC10508264, “Exploring the antioxidant, antimicrobial, cytotoxic and biothermodynamic properties of novel morpholine derivative bioactive Mn(II), Co(II) and Ni(II) complexes – combined experimental and theoretical measurements towards DNA/BSA/SARS-CoV-2 3CL^Pro” (RSC Medicinal Chemistry, 2023).

Key:
CT-DNA = experiment: DNA binding by viscometric (hydrodynamic) technique
Procedure: The hydrodynamic properties were measured using an Ostwald viscometer with the help of a thermostat (25 ± 0.1 °C). The specific viscosity of DNA was also measured in the presence and absence of the test samples.[13,30]
Generally, when the major/minor groove binding, electrostatic, partial, and non-classical interaction modes are involved between chemical substances and DNA base pairs, the final DNA relative viscosity remains unchanged or undergoes a very negligible change due to reducing the contour length of DNA. When the intercalation binding modes are involved between a chemical substance and DNA base pairs via π–π stacking interactions and hydrophobic forces, an increase in relative viscosity is noted due to a rise in the contour length of DNA. Moreover, for the purpose of observing alterations in the CT-DNA helical structure, the viscosity findings for CT-DNA, various concentrations of chemical substances present, and EtBr were recorded. It was also noted that the absolute viscosity rose consistently along with the incremental concentration of each substance at the fixed DNA concentration. As a result of the strong binding mode of intercalation, the contour length of the double-helix DNA rises.[72] The obtained results are also compared with those of the classical intercalator (EB). The affinity interaction and their slope values were observed from the relative specific viscosity (η/η0)^1/3 plotted as a straight line contrasting [compound]/[DNA] and absolute specific viscosity of DNA in the presence or absence of chemical substances was evaluated using eqn (11) (Table 3). In the experiment, it was clearly noted that the slope values for all samples increased due to the rising binding affinity. The evaluated slopes were in the following sequence: (EB) 1.215 > (2) 0.860 > (3) 0.801 > (1) 0.662 > (HL) 0.490 (Fig. S21 ^† and Table 3). […] Due to the existence of 2,2′-bipyridine and the morpholine-fused aromatic planar systems, compounds can interact with DNA robustly via intercalation. The outcomes agreed with the observed outcomes of electronic absorption spectral characteristics.
11 [drawing 21] where η and η0 represent the specific viscosity of DNA in the presence of the complex and the specific viscosity of DNA alone, t0, tDNA and tcomplex represent the average flow time of the Tris–HCl buffer solution, the average flow time of the DNA alone solution, and the average flow time of DNA interacted with the samples, respectively. Error limit ± 2.5% (P < 0.025). […]
2.2.4. Assessment of DNA affinity by hydrodynamic technique
Hydrodynamic properties were performed using an Ostwald viscometer with the help of a thermostat (25 ± 0.1 °C). The experiment was performed of all samples, including ethidium bromide at various concentrations (20, 40, 60, 80, 100 µM) and each test compound was mixed with the deoxyribonucleic acid solution (100 µM) in the Ostwald viscometer. With a help of digital stopwatch, average flow time was gauged three times for each addition, and the specific viscosity of deoxyribonucleic acid was also measured in the presence and absence of test samples. […]
Also, the emission spectral titration for all compounds was also carried out at a fixed concentration (25 μM) of BSA with an incremental concentration of substances (0–25 µM)

BSA = BSA (Bos taurus, UniProt P02769); assay type: binding, bovine; details: for Δλ (nm), blue shift of BSA band: 25 μM BSA, compound 0–25 μM; for Binding constant Kapp by BH method (Kb, BSA): 25 °C; for Gibb's free energy change of BSA binding: T = 298 K
[1] = Hydroxyl radical scavenging assay; assay type: biochemical; details: for % Inhibition, hydroxyl radical: 230 nm
[2] = tested on: Salmonella enterica serovar typhi; experiment: Agar disc diffusion, strain B; assay type: cell-based; details: for Diameter of clear zone inhibition: control 6 mm
Pseudomonas aeruginosa = experiment: Agar disc diffusion, strain D; assay type: cell-based; set-up: Inhibition%: concentration or dose not given beside the values; details: for Diameter of clear zone inhibition: control 6 mm
Bacillus cereu = experiment: Agar disc diffusion, strain G; assay type: cell-based; set-up: Inhibition%: concentration or dose not given beside the values; details: for Diameter of clear zone inhibition: control 6 mm
Aspergillus niger = experiment: Agar disc diffusion, strain H; assay type: cell-based; set-up: Inhibition%: concentration or dose not given beside the values; details: for Diameter of clear zone inhibition: control 6 mm
Candida albicans = experiment: Agar disc diffusion, strain I; assay type: cell-based; set-up: Inhibition%: concentration or dose not given beside the values; details: for Diameter of clear zone inhibition: control 6 mm
A549 = experiment: MTT cell viability assay, A549; assay type: cell-based, human; details: A549, 72 h of exposure
MCF-7 = experiment: MTT cell viability assay, MCF-7; assay type: cell-based, human; details: MCF-7, 72 h of exposure
[3] = Superoxide scavenging assay; details: for % Inhibition, superoxide: 590 nm; for IC50: read-out: IC50, superoxide

SMILES | Slope of (η/η0)^1/3 vs [compound]/[DNA] (CT-DNA) | Relative specific viscosity (η/η0)^1/3 (CT-DNA; [complex]/[DNA] = 0.2) | Relative specific viscosity (η/η0)^1/3 (CT-DNA; [complex]/[DNA] = 0.4) | Relative specific viscosity (η/η0)^1/3 (CT-DNA; [complex]/[DNA] = 0.6) | Relative specific viscosity (η/η0)^1/3 (CT-DNA; [complex]/[DNA] = 0.8) | Relative specific viscosity (η/η0)^1/3 (CT-DNA; [complex]/[DNA] = 1.0) | Δλ (nm), blue shift of BSA band (BSA) [nm] | Binding constant Kapp by BH method (Kb, BSA) (BSA) [M⁻¹] | Gibb's free energy change of BSA binding (BSA) [kJ/mol] | % Inhibition, hydroxyl radical ([1]; 40 µM) [%] | % Inhibition, hydroxyl radical ([1]; 80 µM) [%] | % Inhibition, hydroxyl radical ([1]; 120 µM) [%] | % Inhibition, hydroxyl radical ([1]; 160 µM) [%] | % Inhibition, hydroxyl radical ([1]; 200 µM) [%] | % Inhibition, hydroxyl radical ([1]; 240 µM) [%] | Inhibition% [2] [%] | Diameter of clear zone inhibition [2] [mm] | Inhibition% (Pseudomonas aeruginosa) [%] | Diameter of clear zone inhibition (Pseudomonas aeruginosa) [mm] | Inhibition% (Bacillus cereu) [%] | also measured
[Mn+2].[O-]c1ccccc1N=Cc1ccc(N2CCOCC2)cc1.[O-]c1ccccc1N=Cc1ccc(N2CCOCC2)cc1.c1ccc(-c2ccccn2)nc1 [(1)] | 0.662 | 0.66 | 0.78 | 0.88 | 1.02 | 1.12 | 03 | 12429 | -23.3580 | 10.08 | 17.89 | 28.56 | 34.04 | 44.92 | 56.03 | 50 | 12 | 63 | 16 | 57 | Diameter of clear zone inhibition (Bacillus cereu): 14 mm; Inhibition% (Aspergillus niger): 50%; Diameter of clear zone inhibition (Aspergillus niger): 12 mm; Inhibition% (Candida albicans): 57%; Diameter of clear zone inhibition (Candida albicans): 14 mm; IC50 (A549): 37.6 ± 1.9 µM; IC50 (MCF-7): 36.6 ± 1.8 µM; % Inhibition, superoxide ([3]; 40 µM): 06.85%; % Inhibition, superoxide ([3]; 80 µM): 13.32%; % Inhibition, superoxide ([3]; 120 µM): 22.56%; % Inhibition, superoxide ([3]; 160 µM): 36.63%; % Inhibition, superoxide ([3]; 200 µM): 45.42%; % Inhibition, superoxide ([3]; 240 µM): 54.12%
[Co+2].[O-]c1ccccc1N=Cc1ccc(N2CCOCC2)cc1.[O-]c1ccccc1N=Cc1ccc(N2CCOCC2)cc1.c1ccc(-c2ccccn2)nc1 [(2)] | 0.860 | 0.77 | 0.88 | 1.05 | 1.18 | 1.48 | 02 | 30937 | -25.6174 | 08.02 | 15.24 | 26.23 | 36.41 | 46.17 | 56.85 | 40 | 10 | 54 | 13 | 54 | IC50 [1]: 200 µM; Diameter of clear zone inhibition (Bacillus cereu): 13 mm; Inhibition% (Aspergillus niger): 50%; Diameter of clear zone inhibition (Aspergillus niger): 12 mm; Inhibition% (Candida albicans): 50%; Diameter of clear zone inhibition (Candida albicans): 12 mm; IC50 (A549): 34.2 ± 1.7 µM; IC50 (MCF-7): 35.9 ± 1.8 µM; % Inhibition, superoxide ([3]; 40 µM): 07.02%; % Inhibition, superoxide ([3]; 80 µM): 11.73%; % Inhibition, superoxide ([3]; 120 µM): 25.81%; % Inhibition, superoxide ([3]; 160 µM): 43.12%; % Inhibition, superoxide ([3]; 200 µM): 54.42%; % Inhibition, superoxide ([3]; 240 µM): 62.24%; IC50 [3]: 200 µM
[Ni+2].[O-]c1ccccc1N=Cc1ccc(N2CCOCC2)cc1.[O-]c1ccccc1N=Cc1ccc(N2CCOCC2)cc1.c1ccc(-c2ccccn2)nc1 [(3)] | 0.801 | 0.71 | 0.86 | 0.92 | 1.11 | 1.31 | 02 | 18374 | -24.3265 | 07.67 | 15.86 | 26.12 | 35.43 | 45.56 | 55.75 | 40 | 10 | 57 | 14 | 54 | Diameter of clear zone inhibition (Bacillus cereu): 13 mm; Inhibition% (Aspergillus niger): 50%; Diameter of clear zone inhibition (Aspergillus niger): 12 mm; Inhibition% (Candida albicans): 63%; Diameter of clear zone inhibition (Candida albicans): 16 mm; IC50 (A549): 33.5 ± 1.7 µM; IC50 (MCF-7): 34.5 ± 1.7 µM; % Inhibition, superoxide ([3]; 40 µM): 06.27%; % Inhibition, superoxide ([3]; 80 µM): 12.17%; % Inhibition, superoxide ([3]; 120 µM): 24.31%; % Inhibition, superoxide ([3]; 160 µM): 40.01%; % Inhibition, superoxide ([3]; 200 µM): 50.78%; % Inhibition, superoxide ([3]; 240 µM): 58.83%; IC50 [3]: 200 µM
Oc1ccccc1N=Cc1ccc(N2CCOCC2)cc1 [(HL), 2-(4-morpholinobenzylideneamino)phenol] | 0.490 | 0.61 | 0.67 | 0.75 | 0.85 | 1.01 | 02 | 7556 | -22.1246 | 07.26 | 14.43 | 25.52 | 33.86 | 40.73 | 50.68 | 33 | 09 | 25 | 08 | 33 | Diameter of clear zone inhibition (Bacillus cereu): 09 mm; Inhibition% (Aspergillus niger): 40%; Diameter of clear zone inhibition (Aspergillus niger): 10 mm; Inhibition% (Candida albicans): 40%; Diameter of clear zone inhibition (Candida albicans): 10 mm; IC50 (A549; Homo sapiens): 126 ± 6.3 µM; IC50 (MCF-7; Homo sapiens, MCF7): 105 ± 5.3 µM; % Inhibition, superoxide ([3]; 40 µM): 05.23%; % Inhibition, superoxide ([3]; 80 µM): 10.74%; % Inhibition, superoxide ([3]; 120 µM): 18.85%; % Inhibition, superoxide ([3]; 160 µM): 33.55%; % Inhibition, superoxide ([3]; 200 µM): 40.91%; % Inhibition, superoxide ([3]; 240 µM): 50.42%
